The nature of assay [1]: Luminescence Cell-Based Dose Response HTS to Identify Inhibitors of 5'UTR Stem-Loop Driven Prion Protein mRNA Translation in H4 Neuroglioblastoma Cells. [Related pubchem assays: 1827 (Project Summary), 1813 (Primary HTS)]. The format is functional.
Assay [2] can be described thus: inhibitors of SNCA 5'UTR-driven reporter translation, confirmation, H4 neuroglioma cells, luminescence (AID 1988). The format is functional, cell-based.
Assay [3] in a line: inhibitors of firefly luciferase expression or activity, dose response, H4 neuroglioma cells, luminescence (AID 1990). The assay is classed as functional, cell-based.
Assay [4] in a line: Luminescence Cell-Based Dose Response HTS to Identify Activators of Luciferase Translation or Activity in H4 […] Cells. [Related pubchem assays: 1829 (Project Summary), 1814 (Primary HTS)]. The assay is classed as functional.
The subject of the next assay is H4. The assay can be described thus: Luminescence Cell-Based Dose Response HTS to Identify Activators of 5'UTR Stem-Loop Driven Prion Protein mRNA Translation in H4 Neuroglioblastoma Cells. [Related pubchem assays: 1829 (Project Summary), 1814 (Primary HTS)]. Particulars: Homo sapiens. The format is functional.
Assay [5] is described as follows: Luminescence Cell-Based Dose Confirmation HTS to Identify Activators of 5'UTR Stem-Loop Driven Alpha-Synuclein mRNA Translation in H4 Neuroglioblastoma Cells. [Related pubchem assays: 1829 (Project Summary), 1814 (Primary HTS)]. The assay is classed as functional.
Assay [6] has as its target T1, Polyadenylate-binding protein 1 (Homo sapiens, UniProt P11940). As to the kind of experiment: PABP1 MLLE–PAM2 binding inhibitor potency, dose response, biochemical, fluorescence polarization, FITC-PAM2 peptide (AID 602259). The format is functional. The note with it: read-out: IC50_Mean.
For assay [7], the target named is T1, Polyadenylate-binding protein 1. The assay can be described thus: PABP1 MLLE–PAM2 interaction inhibitors, dose response, miRNA deadenylation inhibitor project, biochemical, fluorescence polarization, Cy5-PAM2 peptide, secondary (AID 602260). The format is functional. Particulars: read-out: IC50_Mean.
The target in the next assay is T2, Streptokinase A (Streptococcus pyogenes serotype M1, UniProt P10520).
T2 sequence (P10520 whole entry): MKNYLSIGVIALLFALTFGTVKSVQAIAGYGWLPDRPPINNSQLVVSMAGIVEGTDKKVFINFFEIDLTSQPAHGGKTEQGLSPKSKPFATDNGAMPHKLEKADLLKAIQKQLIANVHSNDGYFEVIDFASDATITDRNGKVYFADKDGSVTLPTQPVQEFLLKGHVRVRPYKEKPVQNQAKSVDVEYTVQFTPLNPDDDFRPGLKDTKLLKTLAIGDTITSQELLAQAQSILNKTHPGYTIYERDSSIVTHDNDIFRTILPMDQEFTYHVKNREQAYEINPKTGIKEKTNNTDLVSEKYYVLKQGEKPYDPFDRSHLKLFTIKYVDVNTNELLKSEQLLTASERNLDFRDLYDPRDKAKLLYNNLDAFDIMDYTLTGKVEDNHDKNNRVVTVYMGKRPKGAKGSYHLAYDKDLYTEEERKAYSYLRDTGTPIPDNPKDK
The assay can be described thus: S. pyogenes streptokinase expression inhibitors, potency, dose response, plasminogen activation absorbance, OD405 (AID 1914).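 Note: secreted streptokinase activity via plasminogen activation per viability signal from cell pellet.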 The format is functional, Streptococcus pyogenes M1 GAS.

Another assay deals with Streptococcus. The assay can be described thus: Group A Streptococcus viability loss, dose response, counter-screen for streptokinase expression inhibitor project, luminescence, BacTiterGlo (AID 1915).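 Note: potency for reduction of bacterial viability or growth.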 The format is functional, organism-based.
Assay [8] relates to Streptococcus sp. 'group A'. The assay can be described thus: growth inhibition of control SK(-) GAS strain, dose response, counter-screen for streptokinase expression inhibitor project, luminescence, kanamycin, BacTiterGlo, confirmation (AID 1900). The assay is classed as functional, organism-based.
The target in a further assay is Cytochrome P450 2C9 (Homo sapiens, UniProt P11712).
Sequence of Cytochrome P450 2C9 (P11712 whole entry): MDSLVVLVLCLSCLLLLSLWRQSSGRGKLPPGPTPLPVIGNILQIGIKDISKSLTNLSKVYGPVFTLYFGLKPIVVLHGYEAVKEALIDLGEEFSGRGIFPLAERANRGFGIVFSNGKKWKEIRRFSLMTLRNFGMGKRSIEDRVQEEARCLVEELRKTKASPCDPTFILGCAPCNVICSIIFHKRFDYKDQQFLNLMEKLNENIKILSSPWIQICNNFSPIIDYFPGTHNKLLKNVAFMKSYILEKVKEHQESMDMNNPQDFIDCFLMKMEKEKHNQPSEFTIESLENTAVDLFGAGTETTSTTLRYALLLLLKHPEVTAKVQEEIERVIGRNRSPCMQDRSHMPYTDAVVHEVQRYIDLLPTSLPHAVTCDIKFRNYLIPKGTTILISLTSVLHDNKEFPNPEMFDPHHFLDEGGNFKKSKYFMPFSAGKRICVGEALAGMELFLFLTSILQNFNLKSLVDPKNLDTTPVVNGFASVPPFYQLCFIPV
Assay [9] in a line: Luminescence Cell-Based Dose Retest to Confirm Inhibitors of Cancer Stem Cells. [Related pubchem assays (depositor defined):AID2717, AID2721]. Particulars: Homo sapiens. The assay is classed as functional.
For a further assay, the target named is Paired box protein Pax-8 (Homo sapiens, UniProt Q06710). As to the kind of experiment: inhibitors of PAX8-driven TPO luciferase reporter, dose response, RMG-I cells, cherry-pick (AID 687027).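 Note: luciferase reporter driven by Pax8 target thyroperoxidase promoter measured by SteadyGlo luminescence.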 The assay is classed as functional, cell-based.
Sequence of Paired box protein Pax-8 (Q06710 whole entry): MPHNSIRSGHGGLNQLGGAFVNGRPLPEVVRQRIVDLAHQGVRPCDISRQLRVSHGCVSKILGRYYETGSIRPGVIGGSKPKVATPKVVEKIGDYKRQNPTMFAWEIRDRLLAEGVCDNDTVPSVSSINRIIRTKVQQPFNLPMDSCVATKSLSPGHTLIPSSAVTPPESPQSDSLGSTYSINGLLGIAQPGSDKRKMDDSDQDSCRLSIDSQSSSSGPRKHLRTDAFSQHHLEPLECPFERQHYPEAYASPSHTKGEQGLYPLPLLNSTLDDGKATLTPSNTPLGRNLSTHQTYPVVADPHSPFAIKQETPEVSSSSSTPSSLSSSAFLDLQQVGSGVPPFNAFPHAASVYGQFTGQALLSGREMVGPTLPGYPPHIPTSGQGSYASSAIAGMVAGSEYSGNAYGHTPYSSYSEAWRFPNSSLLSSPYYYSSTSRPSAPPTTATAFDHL
Assay [10] in a line: HEp-2 cell cytotoxicity, dose response, cytotoxicity control for RSV inhibitor project, HTS (AID 2410). The format is functional. The note with it: human respiratory syncytial virus.
The target of assay [11] is T3, Corticotropin-releasing factor receptor 2/Corticotropin-releasing factor-binding protein (Homo sapiens, UniProt P24387+Q13324).
T3 sequence (Q13324 whole entry): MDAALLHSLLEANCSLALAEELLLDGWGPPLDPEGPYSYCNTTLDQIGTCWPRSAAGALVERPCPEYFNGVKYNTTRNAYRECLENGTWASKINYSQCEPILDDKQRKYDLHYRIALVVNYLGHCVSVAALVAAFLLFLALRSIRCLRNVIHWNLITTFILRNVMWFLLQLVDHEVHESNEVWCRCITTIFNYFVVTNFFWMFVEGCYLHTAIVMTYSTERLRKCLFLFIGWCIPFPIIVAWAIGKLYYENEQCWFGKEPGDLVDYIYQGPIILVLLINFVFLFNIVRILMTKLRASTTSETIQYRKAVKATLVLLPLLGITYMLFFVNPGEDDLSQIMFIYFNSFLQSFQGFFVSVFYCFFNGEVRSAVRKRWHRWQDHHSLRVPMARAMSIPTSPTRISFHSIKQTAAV
T3 sequence (P24387 whole entry): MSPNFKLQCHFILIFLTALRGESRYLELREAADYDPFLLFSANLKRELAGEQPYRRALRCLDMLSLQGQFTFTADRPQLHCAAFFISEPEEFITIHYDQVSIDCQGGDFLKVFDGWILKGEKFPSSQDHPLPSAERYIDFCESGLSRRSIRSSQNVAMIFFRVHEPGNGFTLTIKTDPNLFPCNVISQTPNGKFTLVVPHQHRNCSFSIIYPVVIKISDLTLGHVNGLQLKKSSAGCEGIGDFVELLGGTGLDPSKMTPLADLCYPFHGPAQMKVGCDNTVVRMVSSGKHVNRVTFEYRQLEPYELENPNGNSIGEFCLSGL
The assay can be described thus: activators of CRF receptor 2 with binding protein – uHTS hits, confirmation (AID 602473). The format is functional. Particulars: read-out: EC50_Mean.

SMILES strings stand for the structures. Activity calls are given as the source filed them. Cut-off read from the data, not from the text of the source, for most assays here: actives have a measured EC50 and inactives only a lower limit.

T1 sequence (P11940 whole entry): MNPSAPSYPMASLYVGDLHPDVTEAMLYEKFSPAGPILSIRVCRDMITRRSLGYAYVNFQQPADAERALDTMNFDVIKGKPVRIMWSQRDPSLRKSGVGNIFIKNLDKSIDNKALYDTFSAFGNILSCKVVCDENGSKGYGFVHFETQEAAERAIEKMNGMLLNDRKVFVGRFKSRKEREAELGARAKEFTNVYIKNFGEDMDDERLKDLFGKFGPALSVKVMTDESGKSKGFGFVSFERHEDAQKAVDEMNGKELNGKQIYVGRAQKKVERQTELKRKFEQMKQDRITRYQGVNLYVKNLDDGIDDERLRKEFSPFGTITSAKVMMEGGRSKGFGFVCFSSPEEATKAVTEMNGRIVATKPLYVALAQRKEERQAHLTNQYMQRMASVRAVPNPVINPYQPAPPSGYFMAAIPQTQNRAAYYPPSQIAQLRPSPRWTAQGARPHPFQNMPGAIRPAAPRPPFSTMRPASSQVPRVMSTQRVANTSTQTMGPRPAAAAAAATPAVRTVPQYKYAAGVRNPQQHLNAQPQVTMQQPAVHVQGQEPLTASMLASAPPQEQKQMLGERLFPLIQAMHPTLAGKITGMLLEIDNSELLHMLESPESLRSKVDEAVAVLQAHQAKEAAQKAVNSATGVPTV

Turning to `Cc1cc(/C=C2/SC(=S)N(c3cccc(C(F)(F)F)c3)C2=O)c(C)n1-c1cccnc1`, the EC50 in assay [1], in [2] and in assay [3] was > 120 µM (not active) in each case.
With `CCc1ccc(C(=O)Nn2cnc3ccccc3c2=O)cc1`, the values for the EC50 (in [4]; in the assay on H4; in assay [5]) were 26.8 µM (active), 0.887 µM (active) and 2.82 µM (active), respectively.
For the compound `CC1CC(C)(C)NC(=S)S1` (configuration not stated), the IC50 in assay [6] and in assay [7] was > 66 µM (inactive) throughout.
`Fc1ccc(-c2csc3ncnc(N4CCc5ccccc5C4)c23)cc1`: the EC50 on Streptokinase A was 6.92 µM (active); with Streptococcus, > 50 µM (not active); in assay [1], > 120 µM (not active); in [2] it was > 120 µM (not active); in assay [8], 9.67 µM (active); in assay [3], 23.6 µM (active).
For the compound `O=C(/C=C/c1ccccc1)NC(=S)Nc1ccccc1O`, the results for the EC50 (in [4]; with H4; in assay [5]) were 66.3 µM (active), 1.9 µM (active) and 0.387 µM (active), respectively.
Turning to `O=C(CSc1ccc2nnc(-c3ccccc3)n2n1)N1CCCCC1`, the IC50 in assay [6] and in assay [7] was > 66 µM (inactive) each time.
In the case of `O=C(NCCc1ccccc1)c1ccccc1NC(=O)C1CCCCC1C(=O)O` (configuration not stated), the figures for the EC50 (in assay [4]; with H4; in assay [5]) were 17.9 µM (active), 5.14 µM (active) and 19.1 µM (active), respectively.
The corresponding values for `CC(=O)Nc1ccc(Nc2nc(-c3cc4ccccc4oc3=O)cs2)cc1` are 0.676 µM (active), 1.7 µM (active) and 0.397 µM (active).
Take `O=C(Cc1ccc2c(c1)CCCC2)Nc1ccccc1Br`: the AC50 at Cytochrome P450 2C9 was 15.8 µM (inconclusive). The IC50 in [6] and in assay [7] was > 66 µM (inactive) each time.
On to `O=C1N=C(N2CCOCC2)S/C1=C\c1ccccc1OS(=O)(=O)c1ccccc1`, for which the EC50 in [1] is > 120 µM (not active); in assay [2], > 120 µM (not active); in assay [3] it was 14.8 µM (active).
For `COc1ccc(C(=S)N2CCN(c3ccccc3C)CC2)cc1`, the IC50 in [6] and in assay [7] was > 66 µM (inactive) throughout.
Consider `Cc1ccc(-n2c(C)cc3c2CCCC3=O)cc1`, for which the IC50 in [6] was 41.2 µM (inactive); in assay [7] it was > 66 µM (inactive).
With `COc1ccccc1N1CCN(C(=O)CSc2ncnc3c2cnn3-c2ccc(C)c(C)c2)CC1`, the EC50 in assay [4] is 15.4 µM (active); in the assay with H4 it was 54.1 µM (active); in assay [5], 39.4 µM (active).
Taken in the same sequence, the figures for `CCOC(=O)c1sc2nc(NC(=O)C3CC3)sc2c1C` were 57.6 µM (active), 28.4 µM (inconclusive) and 10.8 µM (active).
For the compound `Cc1nnc2nc(SCC(=O)NC3CCCCC3)n(-c3ccc(Br)cc3)c(N)c1-2`, the AC50 in assay [9] is 9.82 µM (active); at Paired box protein Pax-8 it was 8.51 µM (active). The EC50 is 13.9 µM (active) in assay [1], 9.53 µM (active) in [2] and 14.6 µM (active) in assay [3].
With `CC1CC(c2ccccc2)=Nc2ccccc2N1` (configuration not stated), the results for the EC50 (in assay [4]; in the assay with H4; in assay [5]) were 10.6 µM (active), 43 µM (active) and 8.32 µM (active), respectively.
With `O=C(c1ccccc1)N(CCO)Cc1cc2cc3c(cc2nc1O)OCCO3`, the IC50 in assay [6] and in assay [7] was > 66 µM (inactive) throughout.
Turning to `Cc1cccc(NC2(C(F)(F)F)N=C3SCCN3C2=O)n1` (configuration not stated), the IC50 in assay [6] and in assay [7] was > 66 µM (inactive) each time.
Consider `Cc1cccc(CC(=O)N2CCN=C2SCc2ccc([N+](=O)[O-])cc2)c1`, for which the IC50 in assay [6] and in [7] was > 66 µM (inactive) throughout.
Turning to `Cc1cc(C)cc(NC(S)=Nc2ccc(Cl)c(Cl)c2)c1`, the IC50 in assay [6] and in assay [7] was > 66 µM (inactive) in each case.
Turning to `CC(C)c1nnc(SCC(=O)NCCC2=CCCCC2)n1N`, the IC50 in [6] and in assay [7] was > 66 µM (inactive) in each case.
As to `CCOC(=O)c1ccc(NC(=S)N2CCSC2c2ccc(Cl)cc2)cc1` (configuration not stated), the CC50 in assay [10] was 16.9 µM (active). For the same compound, the EC50 in assay [11] was 4.71 µM (active).
With `COCCn1c(SCC(=O)NCC2CCCO2)nc2c(c1=O)SCC2` (configuration not stated), the IC50 in [6] and in assay [7] was > 66 µM (inactive) each time.
As to `Cc1cc(NC(=O)CSc2nccn2-c2cccc(Cl)c2)no1`, the IC50 in assay [6] and in [7] was > 66 µM (inactive) each time.
Take `CC1(Cc2ccc(OC(F)(F)F)cc2)C(=O)Nc2ccc(S(=O)(=O)NC3CCCCC3)cc21` (configuration not stated): at Paired box protein Pax-8, the AC50 is 9.35 µM (active).
As to `CC/C(=N\CCc1c(C)[nH]c2ccccc12)C1=C(O)CC(c2ccccc2)CC1=O` (configuration not stated), the EC50 was 11.7 µM (active) in assay [1], > 120 µM (not active) in assay [2] and > 30 µM (not active) in assay [3].
In the case of `COc1cccc(S(=O)(=O)N(C)C[C@H]2OCc3ccccc3-c3c(n(C)c4ccccc34)C(=O)N([C@@H](C)CO)C[C@H]2C)c1`, on Paired box protein Pax-8, the AC50 is 6.16 µM (active).
Consider `C[C@H](CO)N1C[C@H](C)[C@@H](CN(C)CC2CCCCC2)Oc2ccc(NC(=O)Nc3ccc4c(c3)OCO4)cc2CC1=O`, for which the AC50 at Paired box protein Pax-8 is 11 µM (active).
As to `C[C@H]1[C@@H](OC(=O)CCC(=O)O)O[C@@H]2OC3(C)CC[C@H]4[C@H](C)CC[C@@H]1[C@@]24OO3`, the EC50 in assay [1], in assay [2] and in [3] was > 120 µM (not active) each time.
With `COC(=O)c1sccc1N/N=C/c1ccc(OC)c(OC)c1OC`, the EC50 in [4] is 9.96 µM (active); in the assay on H4, 40.6 µM (active); in assay [5], 87.4 µM (active).

Values taken from ChEMBL document CHEMBL1201862, “PubChem BioAssay data set” (2004).
